The structures appear in SMILES notation.

Assay [1] has as its target T1, CYP5122A1 (Leishmania donovani, UniProt A0A3S7X0B6).
T1 construct: gene LdCL_270005800; truncated form of XP_003861867.1 without the first 60 amino acids (transmembrane domain), N-terminal solubility tag, C-terminal His-tag
T1 sequence (A0A3S7X0B6 61-592): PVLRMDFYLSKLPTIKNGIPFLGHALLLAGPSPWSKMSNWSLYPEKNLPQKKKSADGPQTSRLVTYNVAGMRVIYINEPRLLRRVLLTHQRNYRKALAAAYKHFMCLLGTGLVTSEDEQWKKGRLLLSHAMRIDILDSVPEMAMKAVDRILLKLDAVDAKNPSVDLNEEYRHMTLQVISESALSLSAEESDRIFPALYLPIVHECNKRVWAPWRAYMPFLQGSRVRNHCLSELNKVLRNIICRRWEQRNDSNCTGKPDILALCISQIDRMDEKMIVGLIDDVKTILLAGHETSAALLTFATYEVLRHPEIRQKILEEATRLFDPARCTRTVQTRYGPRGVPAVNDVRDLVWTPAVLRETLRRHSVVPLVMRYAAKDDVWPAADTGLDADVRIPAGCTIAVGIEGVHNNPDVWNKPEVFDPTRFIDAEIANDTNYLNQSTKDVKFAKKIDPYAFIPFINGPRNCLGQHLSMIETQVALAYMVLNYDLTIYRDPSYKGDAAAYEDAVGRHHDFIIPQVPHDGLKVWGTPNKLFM
In words: UV-Vis difference spectra (type II binding), plus BFC inhibition assay.

Assay [2] concerns the target T2, CYP51 (Leishmania donovani, UniProt A0A3S7WRS7).
T2 construct: gene LdCL_110017000; truncated form of XP_003859085.1 without the first 31 amino acids (transmembrane domain), N-terminal solubility tag, C-terminal His-tag
The assay is described as above.

T2 sequence (A0A3S7WRS7 32-480): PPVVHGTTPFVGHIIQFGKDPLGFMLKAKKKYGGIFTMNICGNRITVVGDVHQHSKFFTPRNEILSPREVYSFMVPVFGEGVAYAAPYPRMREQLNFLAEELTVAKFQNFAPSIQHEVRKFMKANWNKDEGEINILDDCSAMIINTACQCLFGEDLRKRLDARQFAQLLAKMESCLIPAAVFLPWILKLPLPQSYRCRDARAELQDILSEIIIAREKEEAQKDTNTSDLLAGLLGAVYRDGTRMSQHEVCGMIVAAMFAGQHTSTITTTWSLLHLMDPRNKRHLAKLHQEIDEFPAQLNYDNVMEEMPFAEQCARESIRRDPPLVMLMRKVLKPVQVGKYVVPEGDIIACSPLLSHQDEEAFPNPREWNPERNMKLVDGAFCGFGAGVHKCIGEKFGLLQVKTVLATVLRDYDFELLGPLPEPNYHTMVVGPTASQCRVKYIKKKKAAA

`Clc1ccccc1C(c1ccccc1)(c1ccccc1)n1ccnc1` [clotrimazole]: the “UV-Vis difference spectra (type II binding), plus BFC inhibition assay” value in assay [1] is “Clotrimazole exhibited type II binding to both CYP51 and CYP5122A1”; in assay [2], “Clotrimazole exhibited type II binding to both CYP51 and CYP5122A1”. As to `OC(Cn1cncn1)(Cn1cncn1)c1ccc(F)cc1F` [fluconazole], the “UV-Vis difference spectra (type II binding), plus BFC inhibition assay” value in assay [2] is “Fluconazole and voriconazole elicited type II binding with CYP51 but no specific responses with CYP5122A1”. Same read-out and setting: the entry for `C[C@@H](c1ncncc1F)[C@](O)(Cn1cncn1)c1ccc(F)cc1F` [voriconazole] is “Fluconazole and voriconazole elicited type II binding with CYP51 but no specific responses with CYP5122A1”.

Source of the values: paper PMC10402201, “CYP5122A1 encodes an essential sterol C4-methyl oxidase in Leishmania donovani and determines the antileishmanial activity of antifungal azoles” (Research Square, 2023).
